The Cmax is the highest concentration seen after dosing. The EC50 is the concentration giving half of the maximal effect. Read a high EC50 as weaker potency. The term viability denotes the share of living cells, or the viability signal relative to a control. High values mean less harm to the cells, low ones more harm to the cells.

Results on eight compounds are retold here after PMC5615103 (Toxicology Reports, 2017).

The nature of data set [1]: average plasma maximum concentration. The note with it: human. Format: in vivo, humans.
For data set [2] the following is noted: human plasma, cited from earlier work.
For data set [3] the following is noted: cited from earlier work; for DILI classification (b) positive or negative for DILI: ref Xu et al. [33]; for iDILI/non-iDILI: selected by literature research, ref [30], [4], [8], [31], [32]; for DILI classification (a) LTKB class: Liver Toxicity Knowledge Base, ref Chen et al. [34]; for FDA status: FDA-approved labels, ref DailyMed.
The test system of another data set is THP-1 monocytes. The data set can be described thus: WST-1 dose-response cytotoxicity in THP-1 monocytes. In kind it is cell-based, human. The following applies: for EC50: Homo sapiens, THP-1, 24 h; for EC80 (concentration at which 80% of the cells are still viable): THP-1 monocytes, 24 h, WST-1. On the technique in general: Tetrazolium dyes change colour on reduction, which living cells bring about.

Assay in data set [4]: as above
In kind it is cell-based, human. The following applies: human, THP-1 monocytes.

Data set [5] deals with HepG2 cells. The data set can be described thus: HepG2 viability. Format: cell-based, human. The note with it: 3-5 × 10^5 THP-1 monocytes, no stimulus; same concentrations.
Data set [6] concerns HepG2 cells. Kind of data set: HepG2 viability. In kind it is cell-based, human. The following applies: 10 ng/mL TNF, 24 h; for synergistic effect (enhanced cellular death) on co-exposure with TNF: HepG2 monoculture, 32 μM TGZ/RGZ, 25 μM TVX/LVX, 125 μM DcL/ASS, 20 μM KC/FC; for change of the TNF-dependent synergistic effect by addition of THP-1 monocytes: co-culture HepG2 + THP-1 monocytes.

Data set [7] concerns HepG2 cells. Kind of data set: HepG2 monoculture, increasing drug concentrations with or without TNF, WST-1. In kind it is cell-based, human. The note with it: 24 h; for TNF-dependent synergistic effect at increasing drug concentrations: with vs without 10 ng/mL TNF.
For data set [8], the system named is HepG2 cells. The data set can be described thus: WST-1 dose-response cytotoxicity in HepG2 monoculture. In kind it is cell-based, human. The note with it: for EC80 (concentration at which 80% of the cells are still viable) / EC50: HepG2, 24 h; for EC80 (concentration at which 80% of the cells are still viable): WST-1; for EC50: Homo sapiens.
Assay in data set [9]: as above
The note with it: human, HepG2 cells (monoculture). Format: cell-based, human.

For data set [10], the system named is HepG2 cells. The data set can be described thus: Morphology of HepG2 cell cultures. Format: cell-based, human. The note with it: 24 h; for alterations in the morphology of HepG2 cell cultures: 25 μM TVX or 125 μM DcL + 10 ng/mL TNF.
Data set [11] has as its system HepG2 cells. Kind of data set: HepG2 viability. The note with it: 1 μg/mL LPS, 48 h; for enhanced cell death in HepG2 cells on co-exposure with LPS: mono- and co-cultures with THP-1 monocytes, 25 μM TVX/LVX, 20 μM KC/FC; for synergy with LPS in co-culture with THP-1 monocytes: co-culture HepG2 + THP-1 monocytes. Format: cell-based, human.

Molecules are shown by their SMILES. “Also recorded” adds a separate entry of the source. Where two headings read alike, the source gives them in different places. Marks after values point to notes of the source that are not given here.

In data set [1], `CC(=O)Oc1ccccc1C(=O)O` [ASS, Acetylsalicylic acid] returned a Cmax of 552 µM. Besides, the peak concentration (Cmax) in data set [2] (commonly recommended therapeutic doses, ref Xu et al. [33]) is 1.00 µg/mL. In data set [3], the “DILI classification (b) positive or negative for DILI” value (“DILI classification … for DILI” for short) is reported as “negative” and the iDILI/non-iDILI entry was “Non-iDILI”.

As to `O=C(O)Cc1ccccc1Nc1c(Cl)cccc1Cl` [DcL, Diclofenac], in the data set with THP-1 monocytes, the EC50 turned out to be 76 µM and the “EC80 (concentration at which 80% of the cells are still viable)” value turned out to be 30 µM. This compound gave a viability at 24 h, 125 μM in [4] of around 30%. In addition, the “influence of higher THP-1 monocyte number on the effect in co-culture” value (“influence” for short) with HepG2 cells [5] is given as “enhanced by higher numbers of immune cells”. This compound had a Cmax in data set [1] of 744 µM. In data set [3], the “DILI classification (a) LTKB class” value is “Most DILI-concern” and the “DILI classification … for DILI” value is listed as “positive”. Also, in the data set with HepG2 cells [6], the “synergistic effect (enhanced cellular death) on co-exposure with TNF” value (“synergistic effect … on co-exposure with TNF” for short) is “stronger than in the case of TGZ and KC”; the “change of the TNF-dependent synergistic effect by addition of THP-1 monocytes” value is “compensated in the co-culture system”. Moreover, the “doses necessary to elicit enhanced toxicities (onset of synergy with TNF)” value with HepG2 cells [7] (10 ng/mL TNF) is above 50 µM. Further, the “synergistic effect when co-exposed with TNF” value in the data set with HepG2 cells [7] (drug 50 μM, 10 ng/mL TNF) was “not able to induce a synergistic effect”. The “TNF-dependent synergistic effect at increasing drug concentrations” value in the data set on HepG2 cells [7] was “stronger than those of TGZ and KC”. For the same compound, in the data set with HepG2 cells [8], the “EC80 (concentration at which 80% of the cells are still viable)” value is 604 µM and the EC50 amounted to 775 µM. Besides, the “cytotoxicity / metabolic activity at the used concentration” value in the data set with HepG2 cells [8] (HepG2, same concentration as in co-culture experiments, 24 h) was “no cytotoxicity; also recorded: not affected”. The compound also had a viability at 24 h, 125 μM in data set [9] of around 100%. Also, the “alterations in the morphology of HepG2 cell cultures” value in the data set on HepG2 cells [10] is “pronounced hepatocellular injury”. The “morphology of HepG2 cells” value in the data set on HepG2 cells [10] (selected concentration (125 μM), drug alone) was “morphological changes”.

As for `OC(Cn1cncn1)(Cn1cncn1)c1ccc(F)cc1F` [FC, Fluconazole], in [1], the peak concentration (Cmax) was found to be 882 µM. Moreover, in data set [3], the “DILI classification (a) LTKB class” value is recorded as “Most DILI-concern” and the “DILI classification … for DILI” value was “positive”. The “enhanced cell death in HepG2 cells on co-exposure with LPS” value (“enhanced cell death in HepG2 cells” for short) in the data set with HepG2 cells [11] is on record as “did not show any relevant effects”.

With `CC(=O)N1CCN(c2ccc(OCC3COC(Cn4ccnc4)(c4ccc(Cl)cc4Cl)O3)cc2)CC1` (centres unmarked) [KC, Ketoconazole], in the data set on THP-1 monocytes, a half-maximal effect (EC50) was put at 12 µM and the “EC80 (concentration at which 80% of the cells are still viable)” value worked out at 7 µM. Moreover, the viability at 24 h, 20 μM in data set [4] was around 20%. In addition, the “influence” value in the data set on HepG2 cells [5] is “enhanced by higher numbers of immune cells”. The highest level in data set [1] (Cmax) was 794 µM. Further, the Cmax in data set [2] (ref Huang et al. [35]) is recorded as 4.22** μg/mL. Also, in [3], the FDA status entry is reported as “BBW”, the “DILI classification (a) LTKB class” value is recorded as “Most DILI-concern” and the iDILI/non-iDILI entry is reported as “iDILI”. In addition, the “change of the TNF-dependent synergistic effect by addition of THP-1 monocytes” value in the data set on HepG2 cells [6] was “compensated in the co-culture system”. In the data set on HepG2 cells [11], the “synergy with LPS in co-culture with THP-1 monocytes” value is “showed a synergy only in the presence of both” and the “enhanced cell death in HepG2 cells” value is on record as “significantly enhanced cell death”. For the same compound, in the data set with HepG2 cells [8], the “EC80 (concentration at which 80% of the cells are still viable)” value worked out at 18 µM and the concentration for a half-maximal effect (EC50) is 24 µM. In addition, the viability at 24 h, 20 μM in data set [9] is around 80%.

The compound `C[C@H]1COc2c(N3CCN(C)CC3)c(F)cc3c(=O)c(C(=O)O)cn1c23` [LVX, Levofloxacin] came in with a peak concentration (Cmax) in data set [1] of 1580 µM. Besides, the “DILI classification … for DILI” value in [3] is “negative”. In addition, the “enhanced cell death in HepG2 cells” value in the data set on HepG2 cells [11] is recorded as “did not show any relevant effects”.

Turning to `CN(CCOc1ccc(CC2SC(=O)NC2=O)cc1)c1ccccn1` (centres unmarked) [RGZ, Rosiglitazone], in data set [4], the cytotoxicity at 24 h, 32 µM came out at 10%. Also, in the data set with HepG2 cells [5], the “influence” value is listed as “only negligible effects”. This compound yielded a Cmax in data set [1] of 104 µM. In [3], the “DILI classification … for DILI” value is “negative” and the iDILI/non-iDILI result is recorded as “Non-iDILI”.

Take `Cc1c(C)c2c(c(C)c1O)CCC(C)(COc1ccc(CC3SC(=O)NC3=O)cc1)O2` (centres unmarked) [TGZ, Troglitazone]: in the data set on THP-1 monocytes, the EC50 amounted to 42 µM and the “EC80 (concentration at which 80% of the cells are still viable)” value amounted to 27 µM. The compound further displayed a viability at 24 h, 32 μM in data set [4] of around 70%. Further, the “influence” value in the data set with HepG2 cells [5] is “enhanced at higher THP-1 cell numbers”. The compound further came in with a Cmax in data set [1] of 639 µM. Also, in data set [3], the FDA status result is “WDN”, the “DILI classification (a) LTKB class” value is given as “Most DILI-concern”, the “DILI classification … for DILI” value is recorded as “positive” and the iDILI/non-iDILI entry is given as “iDILI”. For the same compound, in the data set with HepG2 cells [6], the “synergistic effect … on co-exposure with TNF” value is on record as “synergy”. In the data set on HepG2 cells [8], the “EC80 (concentration at which 80% of the cells are still viable)” value came out at 34 µM and the EC50 came out at 40 µM. For the same compound, the viability at 24 h, 32 μM in data set [9] is around 85%.

Turning to `N[C@@H]1[C@H]2CN(c3nc4c(cc3F)c(=O)c(C(=O)O)cn4-c3ccc(F)cc3F)C[C@@H]12` [TVX, Trovafloxacin], in the data set with THP-1 monocytes, a half-maximal response (EC50) required 60 µM and the “EC80 (concentration at which 80% of the cells are still viable)” value was found to be 23 µM. This compound also displayed a viability at 24 h, 25 μM in data set [4] of around 76%. This compound showed a Cmax in data set [1] of 408 µM. Moreover, in data set [3], the FDA status result is on record as “WDN” and the iDILI/non-iDILI result is given as “iDILI”. For the same compound, the “synergistic effect … on co-exposure with TNF” value with HepG2 cells [6] is “stronger than in the case of TGZ and KC”. In the data set with HepG2 cells [11] (HepG2 monoculture), the “synergy with LPS in the HepG2 monoculture” value is given as “showed a synergy”. Moreover, in the data set on HepG2 cells [11], the “synergy with LPS in co-culture with THP-1 monocytes” value is given as “not intensified by immune cells” and the “enhanced cell death in HepG2 cells” value is listed as “significantly enhanced cell death”. In the data set with HepG2 cells [7], the “TNF-dependent synergistic effect at increasing drug concentrations” value is listed as “dose-dependently increased”. In the data set with HepG2 cells [8], the “EC80 (concentration at which 80% of the cells are still viable)” value came to 100 µM and a half-maximal effect (EC50) was put at 370 µM. In data set [9], this compound yielded a viability at 24 h, 25 μM of around 92%. Further, the “alterations in the morphology of HepG2 cell cultures” value in the data set with HepG2 cells [10] is given as “pronounced hepatocellular injury”.
